Legend:
BCL-2 = biological target: T1, BCL-2 (Homo sapiens, UniProt P10415); experiment: HTRF BCL-2/BAK assay (Cisbio); type: binding; details: recombinant human Tag1-BCL-2 2 nM, Tag2-BAK 10 nM
T1 construct: purchased Cisbio 63ADK000CB01PEG
Procedure: (§1) Then the pre-mixed anti-Tag1-Eu^3+ and anti-tag2-XL665 were added to the plate and further incubated at room temperature for another 2 hours. The signals ([…]) were read on Envision 2104 instrument. The IC50 for each compound was derived from fitting the signal of 665/615 nM to the increasing compound concentration.
(§2) Using the above assays, the following compounds were tested.

BCL-XL = biological target: T2, BCL-XL (Homo sapiens, UniProt Q07817); experiment: HTRF BCL-XL/BAK assay (Cisbio); type: binding; details: recombinant human Tag1-BCL-XL 2 nM, Tag2-BAK 5 nM
T2 construct: purchased Cisbio 63ADK000CB04PEG
Procedure: as §1, §2

DOHH2 cells = experiment: CellTiter-Glo cell proliferation assay, DOHH2 cells; type: cell-based; details: Homo sapiens, DOHH-2, 72 hours
In short: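 DOHH2 cells seeded in DMEM + 10% FBS, exposed to serially diluted compound for 72 h at 37 °C, 5% CO2. Viability read by CellTiter-Glo luminescence; GI50 calculated.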

T1 sequence (P10415 whole entry): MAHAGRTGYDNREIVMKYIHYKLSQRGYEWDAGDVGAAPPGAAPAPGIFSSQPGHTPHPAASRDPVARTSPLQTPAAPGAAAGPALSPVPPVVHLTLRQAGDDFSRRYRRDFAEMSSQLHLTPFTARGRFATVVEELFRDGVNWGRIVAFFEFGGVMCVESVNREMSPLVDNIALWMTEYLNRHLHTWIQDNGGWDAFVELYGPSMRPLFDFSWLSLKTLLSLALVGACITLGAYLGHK
T2 sequence (Q07817 whole entry): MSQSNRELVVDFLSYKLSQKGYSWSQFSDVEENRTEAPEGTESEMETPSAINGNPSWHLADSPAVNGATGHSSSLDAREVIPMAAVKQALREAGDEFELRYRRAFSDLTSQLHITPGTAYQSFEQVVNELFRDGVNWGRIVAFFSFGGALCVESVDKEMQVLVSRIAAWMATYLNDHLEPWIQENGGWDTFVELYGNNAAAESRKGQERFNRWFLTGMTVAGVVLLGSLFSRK

**Q.** Which results are given for `O=C(NS(=O)(=O)c1ccc(NCC2(O)CCN(C3COC3)CC2)c([N+](=O)[O-])c1)c1ccc(N2CCN([C@@H]3CCCCc4c(Cl)cc(F)cc43)CC2)cc1Oc1cnc2[nH]ccc2c1` [Compound 88, (R)-2-((1H-pyrrolo[2,3-b]pyridin-5-yl)oxy)-4-(4-(1-chloro-3-fluoro-6,7,8,9-tetrahydro-5H-benzo[7]annulen-5-yl)piperazin-1-yl)-N-((4-(((4-hydroxy-1-(oxetan-3-yl)piperidin-4-yl)methyl)amino)-3-nitrophenyl)sulfonyl)benzamide]?
**A.** IC50 (BCL-2): < 20 nM; IC50 (BCL-XL): < 20 nM; GI50 (DOHH2 cells): < 50 nM

**Q.** For `O=C(NS(=O)(=O)c1ccc(NCC2CC3(CCOCC3)C2)c([N+](=O)[O-])c1)c1ccc(N2CCN([C@@H]3CCCCc4c(Cl)cccc43)CC2)cc1Oc1cnc2[nH]ccc2c1` [Compound 99, (R)-2-((1H-pyrrolo[2,3-b]pyridin-5-yl)oxy)-N-((4-(((7-oxaspiro[3.5]nonan-2-yl)methyl)amino)-3-nitrophenyl)sulfonyl)-4-(4-(1-chloro-6,7,8,9-tetrahydro-5H-benzo[7]annulen-5-yl)piperazin-1-yl)benzamide], which IC50 (BCL-2) is on record?
**A.** < 20 nM

**Q.** And the IC50 (BCL-XL)?
**A.** 20 to 200 nM

**Q.** And the GI50 (DOHH2 cells)?
**A.** < 50 nM

**Q.** What does the source list for `CC1(C)COCCC1CNc1ccc(S(=O)(=O)NC(=O)c2ccc(N3CCN([C@@H]4CCCCc5c(Cl)cccc54)CC3)cc2Oc2cnc3[nH]ccc3c2)cc1[N+](=O)[O-]` (stereo partly drawn) [Compound 101, 2-((1H-pyrrolo[2,3-b]pyridin-5-yl)oxy)-4-(4-((R)-1-chloro-6,7,8,9-tetrahydro-5H-benzo[7]annulen-5-yl)piperazin-1-yl)-N-((4-(((3,3-dimethyltetrahydro-2H-pyran-4-yl)methyl)amino)-3-nitrophenyl)sulfonyl)benzamide]?
**A.** IC50 (BCL-2): < 20 nM; IC50 (BCL-XL): 20 to 200 nM; GI50 (DOHH2 cells): < 50 nM

**Q.** `CC1(C)CC(CNc2ccc(S(=O)(=O)NC(=O)c3ccc(N4CCN([C@@H]5CCCCc6c(Cl)cccc65)CC4)cc3Oc3cnc4[nH]ccc4c3)cc2[N+](=O)[O-])CCO1` (stereo partly drawn) [Compound 102, 2-((1H-pyrrolo[2,3-b]pyridin-5-yl)oxy)-4-(4-((R)-1-chloro-6,7,8,9-tetrahydro-5H-benzo[7]annulen-5-yl)piperazin-1-yl)-N-((4-(((2,2-dimethyltetrahydro-2H-pyran-4-yl)methyl)amino)-3-nitrophenyl)sulfonyl)benzamide] was tested. Which IC50 (BCL-2) did it give?
**A.** < 20 nM

**Q.** What about the IC50 (BCL-XL) of the same compound?
**A.** 20 to 200 nM

**Q.** And the GI50 (DOHH2 cells)?
**A.** < 50 nM

**Q.** How did the IC50 (BCL-2) turn out when `CC(C)(C)OC(=O)NCCN1CCC2(CC1)CC(CNc1ccc(S(=O)(=O)NC(=O)c3ccc(N4CCN([C@@H]5CCCCc6c(Cl)cccc65)CC4)cc3Oc3cnc4[nH]ccc4c3)cc1[N+](=O)[O-])C2` [Compound 109, tert-butyl (R)-(2-(2-(((4-(N-(2-((1H-pyrrolo[2,3-b]pyridin-5-yl)oxy)-4-(4-(1-chloro-6,7,8,9-tetrahydro-5H-benzo[7]annulen-5-yl)piperazin-1-yl)benzoyl)sulfamoyl)-2-nitrophenyl)amino)methyl)-7-azaspiro[3.5]nonan-7-yl)ethyl)carbamate] was run?
**A.** < 20 nM

**Q.** And the IC50 (BCL-XL)?
**A.** 20 to 200 nM

**Q.** And the GI50 (DOHH2 cells)?
**A.** < 50 nM

**Q.** `NCCN1CCC2(CC1)CC(CNc1ccc(S(=O)(=O)NC(=O)c3ccc(N4CCN([C@@H]5CCCCc6c(Cl)cccc65)CC4)cc3Oc3cnc4[nH]ccc4c3)cc1[N+](=O)[O-])C2` [Compound 110, (R)-2-((1H-pyrrolo[2,3-b]pyridin-5-yl)oxy)-N-((4-(((7-(2-aminoethyl)-7-azaspiro[3.5]nonan-2-yl)methyl)amino)-3-nitrophenyl)sulfonyl)-4-(4-(1-chloro-6,7,8,9-tetrahydro-5H-benzo[7]annulen-5-yl)piperazin-1-yl)benzamide] was tested. Which IC50 (BCL-2) did it give?
**A.** < 20 nM

**Q.** What about the IC50 (BCL-XL) of the same compound?
**A.** < 20 nM

**Q.** And the GI50 (DOHH2 cells)?
**A.** < 50 nM

**Q.** `CC(=O)N1CCC2(CC1)CC(CNc1ccc(S(=O)(=O)NC(=O)c3ccc(N4CCN([C@@H]5CCCCc6c(Cl)cccc65)CC4)cc3Oc3cnc4[nH]ccc4c3)cc1[N+](=O)[O-])C2` [Compound 111, (R)-2-((1H-pyrrolo[2,3-b]pyridin-5-yl)oxy)-N-((4-(((7-acetyl-7-azaspiro[3.5]nonan-2-yl)methyl)amino)-3-nitrophenyl)sulfonyl)-4-(4-(1-chloro-6,7,8,9-tetrahydro-5H-benzo[7]annulen-5-yl)piperazin-1-yl)benzamide] was tested. Which IC50 (BCL-2) did it give?
**A.** < 20 nM

**Q.** What about the IC50 (BCL-XL) of the same compound?
**A.** 20 to 200 nM

**Q.** What about the GI50 (DOHH2 cells) of the same compound?
**A.** < 50 nM

**Q.** `O=C(NS(=O)(=O)c1ccc(NCC2CC3(CCNCC3)C2)c([N+](=O)[O-])c1)c1ccc(N2CCN([C@@H]3CCCCc4c(Cl)cccc43)CC2)cc1` [Compound 117, (R)-N-((4-(((7-azaspiro[3.5]nonan-2-yl)methyl)amino)-3-nitrophenyl)sulfonyl)-4-(4-(1-chloro-6,7,8,9-tetrahydro-5H-benzo[7]annulen-5-yl)piperazin-1-yl)benzamide] was tested. Which IC50 (BCL-2) did it give?
**A.** 20 to 200 nM

**Q.** What about the IC50 (BCL-XL) of the same compound?
**A.** 20 to 200 nM

**Q.** What about the GI50 (DOHH2 cells) of the same compound?
**A.** > 5000 nM

**Q.** With `CC(C)(C)OC(=O)NCCN1CCC2(CC1)CC(CNc1ccc(S(=O)(=O)NC(=O)c3ccc(N4CCN([C@@H]5CCCCc6c(Cl)cccc65)CC4)cc3)cc1[N+](=O)[O-])C2` [Compound 119, tert-butyl (R)-(2-(2-(((4-(N-(4-(4-(1-chloro-6,7,8,9-tetrahydro-5H-benzo[7]annulen-5-yl)piperazin-1-yl)benzoyl)sulfamoyl)-2-nitrophenyl)amino)methyl)-7-azaspiro[3.5]nonan-7-yl)ethyl)carbamate] as the compound, how does the IC50 (BCL-2) read?
**A.** 20 to 200 nM

**Q.** And the IC50 (BCL-XL)?
**A.** 200 to 2000 nM

**Q.** And the GI50 (DOHH2 cells)?
**A.** 50 to 500 nM

**Q.** How did the IC50 (BCL-2) turn out when `NCCN1CCC2(CC1)CC(CNc1ccc(S(=O)(=O)NC(=O)c3ccc(N4CCN([C@@H]5CCCCc6c(Cl)cccc65)CC4)cc3)cc1[N+](=O)[O-])C2` [Compound 120, (R)-N-((4-(((7-(2-aminoethyl)-7-azaspiro[3.5]nonan-2-yl)methyl)amino)-3-nitrophenyl)sulfonyl)-4-(4-(1-chloro-6,7,8,9-tetrahydro-5H-benzo[7]annulen-5-yl)piperazin-1-yl)benzamide] was run?
**A.** 20 to 200 nM

**Q.** And the IC50 (BCL-XL)?
**A.** 20 to 200 nM

**Q.** What about the GI50 (DOHH2 cells) of the same compound?
**A.** 500 to 5000 nM

**Q.** What does the source list for `O=C(NS(=O)(=O)c1ccc(NCC2CC3(CCN(CCO)CC3)C2)c([N+](=O)[O-])c1)c1ccc(N2CCN([C@@H]3CCCCc4c(Cl)cccc43)CC2)cc1Oc1cnc2[nH]ccc2c1` [Compound 121, (R)-2-((1H-pyrrolo[2,3-b]pyridin-5-yl)oxy)-4-(4-(1-chloro-6,7,8,9-tetrahydro-5H-benzo[7]annulen-5-yl)piperazin-1-yl)-N-((4-(((7-(2-hydroxyethyl)-7-azaspiro[3.5]nonan-2-yl)methyl)amino)-3-nitrophenyl)sulfonyl)benzamide]?
**A.** IC50 (BCL-2): < 20 nM; IC50 (BCL-XL): < 20 nM; GI50 (DOHH2 cells): < 50 nM

**Q.** How did the IC50 (BCL-2) turn out when `CCOC(=O)CN1CCC2(CC1)CC(CNc1ccc(S(=O)(=O)NC(=O)c3ccc(N4CCN([C@@H]5CCCCc6c(Cl)cccc65)CC4)cc3Oc3cnc4[nH]ccc4c3)cc1[N+](=O)[O-])C2` [Compound 122, ethyl (R)-2-(2-(((4-(N-(2-((1H-pyrrolo[2,3-b]pyridin-5-yl)oxy)-4-(4-(1-chloro-6,7,8,9-tetrahydro-5H-benzo[7]annulen-5-yl)piperazin-1-yl)benzoyl)sulfamoyl)-2-nitrophenyl)amino)methyl)-7-azaspiro[3.5]nonan-7-yl)acetate] was run?
**A.** < 20 nM

**Q.** And the IC50 (BCL-XL)?
**A.** 20 to 200 nM

**Q.** And the GI50 (DOHH2 cells)?
**A.** < 50 nM

**Q.** For `O=C(O)CN1CCC2(CC1)CC(CNc1ccc(S(=O)(=O)NC(=O)c3ccc(N4CCN([C@@H]5CCCCc6c(Cl)cccc65)CC4)cc3Oc3cnc4[nH]ccc4c3)cc1[N+](=O)[O-])C2` [Compound 123, (R)-2-(2-(((4-(N-(2-((1H-pyrrolo[2,3-b]pyridin-5-yl)oxy)-4-(4-(1-chloro-6,7,8,9-tetrahydro-5H-benzo[7]annulen-5-yl)piperazin-1-yl)benzoyl)sulfamoyl)-2-nitrophenyl)amino)methyl)-7-azaspiro[3.5]nonan-7-yl)acetic acid], which IC50 (BCL-2) is on record?
**A.** < 20 nM

**Q.** What about the IC50 (BCL-XL) of the same compound?
**A.** < 20 nM

**Q.** What about the GI50 (DOHH2 cells) of the same compound?
**A.** 50 to 500 nM

**Q.** Which IC50 (BCL-2) does the source give for `CC(C)C(=O)N1CCC2(CC1)CC(CNc1ccc(S(=O)(=O)NC(=O)c3ccc(N4CCN([C@@H]5CCCCc6c(Cl)cccc65)CC4)cc3Oc3cnc4[nH]ccc4c3)cc1[N+](=O)[O-])C2` [Compound 124, (R)-2-((1H-pyrrolo[2,3-b]pyridin-5-yl)oxy)-4-(4-(1-chloro-6,7,8,9-tetrahydro-5H-benzo[7]annulen-5-yl)piperazin-1-yl)-N-((4-(((7-isobutyryl-7-azaspiro[3.5]nonan-2-yl)methyl)amino)-3-nitrophenyl)sulfonyl)benzamide] here?
**A.** < 20 nM

**Q.** And the IC50 (BCL-XL)?
**A.** 20 to 200 nM

**Q.** And the GI50 (DOHH2 cells)?
**A.** < 50 nM

**Q.** How did the IC50 (BCL-2) turn out when `CC(C)[C@H](N)C(=O)N1CCC2(CC1)CC(CNc1ccc(S(=O)(=O)NC(=O)c3ccc(N4CCN([C@@H]5CCCCc6c(Cl)cccc65)CC4)cc3Oc3cnc4[nH]ccc4c3)cc1[N+](=O)[O-])C2` [Compound 125, 2-((1H-pyrrolo[2,3-b]pyridin-5-yl)oxy)-N-((4-(((7-(L-valyl)-7-azaspiro[3.5]nonan-2-yl)methyl)amino)-3-nitrophenyl)sulfonyl)-4-(4-((R)-1-chloro-6,7,8,9-tetrahydro-5H-benzo[7]annulen-5-yl)piperazin-1-yl)benzamide] was run?
**A.** < 20 nM

**Q.** What about the IC50 (BCL-XL) of the same compound?
**A.** < 20 nM

**Q.** And the GI50 (DOHH2 cells)?
**A.** < 50 nM

**Q.** With `O=C(NS(=O)(=O)c1ccc(NCC2CC3(CCN(CC4CC4)CC3)C2)c([N+](=O)[O-])c1)c1ccc(N2CCN([C@@H]3CCCCc4c(Cl)cccc43)CC2)cc1Oc1cnc2[nH]ccc2c1` [Compound 129, (R)-2-((1H-pyrrolo[2,3-b]pyridin-5-yl)oxy)-4-(4-(1-chloro-6,7,8,9-tetrahydro-5H-benzo[7]annulen-5-yl)piperazin-1-yl)-N-((4-(((7-(cyclopropylmethyl)-7-azaspiro[3.5]nonan-2-yl)methyl)amino)-3-nitrophenyl)sulfonyl)benzamide] as the compound, how does the IC50 (BCL-2) read?
**A.** < 20 nM

**Q.** And the IC50 (BCL-XL)?
**A.** < 20 nM

**Q.** And the GI50 (DOHH2 cells)?
**A.** < 50 nM

Reference: patent US20240239792A1, “MODULATORS OF BCL-2 OR BCL-2/BCL-XL AND USES THEREOF” (APPICINE THERAPEUTICS (HK) LIMITED, priority 2021, published 2024)
